≈ marks a conversion by molar mass, not a printed value. Where two headings read alike, the source gives them in different places.
Key:
M. kansasii SWK = assay: Broth dilution MIC vs M. kansasii SWK; type: cell-based; conditions: Mycobacterium kansasii, 7H10 broth, pH 5.8
M. tuberculosis 102 = assay: Broth dilution MIC vs M. tuberculosis 102; type: cell-based
M. avium 101 = assay: Broth dilution MIC vs M. avium 101; type: cell-based; conditions: Mycobacterium avium, 7H10 broth, pH 5.8
M. avium LPR = assay: Broth dilution MIC vs M. avium LPR; type: cell-based; conditions: Mycobacterium avium, M. avium LPR (footnote a), 7H10 broth, pH 5.8
M. tuberculosis BUR = assay: Broth dilution MIC vs M. tuberculosis BUR; type: cell-based; conditions: Mycobacterium tuberculosis, M. tuberculosis BUR (footnote b), 7H10 broth, pH 5.8
[1] = test system: Myobacterium tuberculosis H37RV; conditions: cited from earlier work
[2] = in words; cited from earlier work
[3] = test system: M. bovis or other mycobacteria; conditions: in words; cited from earlier work
[4] = test system: Mycobacterium (M.) tuberculosis; conditions: in words; cited from earlier work
M. avium = conditions: Heifets et al. 1986; cited from earlier work
[5] = test system: a number of bacteria including M. tuberculosis; conditions: Suzuki et al. 1958; cited from earlier work
[6] = Mycobacterium tuberculosis, 102, pH 5.8, M. tuberculosis 102, 7H10 broth, read-out: MIC

Molecule	MIC (M. kansasii SWK) [µg/mL]	MIC (M. tuberculosis 102; [6]) [µg/mL]	MIC (M. avium 101) [µg/mL]	other results
CCCCCCCCCCOC(=O)c1cnccn1 [Example 1]	0.25 (≈ 0.946 µM)	0.5 (≈ 1.89 µM)	32 (≈ 121 µM)	–
CCCCCCCCCCCCCCCOC(=O)c1cnccn1 [Example 2]	1 (≈ 2.99 µM)	0.06 (≈ 0.179 µM)	–	MIC (M. avium LPR): 8 µg/mL (≈ 23.9 µM)
O=C(Oc1ccc(F)cc1)c1cnccn1 [Example 3]	64 (≈ 293 µM)	32 (≈ 147 µM)	128 (≈ 587 µM)	–
O=C(Oc1c(Br)cc(Br)cc1Br)c1cnccn1 [Example 4]	64 (≈ 146 µM)	32 (≈ 73.2 µM)	128 (≈ 293 µM)	–
COC(=O)c1cnc(Cl)cn1 [Example 5]	2 (≈ 11.6 µM)	4 (≈ 23.2 µM)	–	MIC (M. avium LPR): 64 µg/mL (≈ 371 µM)
CCCCCCCCCCOC(=O)c1cnc(Cl)cn1 [Example 6]	0.5 (≈ 1.67 µM)	0.5 (≈ 1.67 µM)	32 (≈ 107 µM)	–
CCCCCCCCCCCCCCCOC(=O)c1cnc(Cl)cn1 [Example 7]	0.25 (≈ 0.678 µM)	0.13 (≈ 0.352 µM)	> 16	–
CCCCCCC(C)OC(=O)c1cnc(Cl)cn1 (centres unmarked) [Example 8]	< 0.25	< 0.25	32 (≈ 118 µM)	–
COCCOCCOC(=O)c1cnc(Cl)cn1 [Example 9]	2 (≈ 7.67 µM)	2 (≈ 7.67 µM)	64 (≈ 246 µM)	–
CCOCCOCCOC(=O)c1cnc(Cl)cn1 [Example 10]	4 (≈ 14.6 µM)	1 (≈ 3.64 µM)	64 (≈ 233 µM)	–
CCCCOCCOCCOC(=O)c1cnc(Cl)cn1 [Example 11]	2 (≈ 6.61 µM)	0.5 (≈ 1.65 µM)	64 (≈ 211 µM)	–
COCCOCCOCCOC(=O)c1cnc(Cl)cn1 [Example 12]	8 (≈ 26.3 µM)	2 (≈ 6.56 µM)	64 (≈ 210 µM)	–
CCCCCCOC(=O)c1cnc(Cl)cn1 [Example 13]	< 0.03	0.13 (≈ 0.536 µM)	32 (≈ 132 µM)	–
CCCCCCCCOC(=O)c1cnc(Cl)cn1 [Example 14]	< 0.03	0.06 (≈ 0.222 µM)	16 (≈ 59.1 µM)	–
CCCOC(=O)c1cnc(Cl)cn1 [Example 15]	0.25 (≈ 1.25 µM)	0.06 (≈ 0.299 µM)	16 (≈ 79.8 µM)	–
CCCCCCC(CCCCCC)OC(=O)c1cnc(Cl)cn1 [Example 16]	0.5 (≈ 1.47 µM)	0.25 (≈ 0.733 µM)	16 (≈ 46.9 µM)	–
CCCCCCC(C)(CCCCCC)OC(=O)c1cnc(Cl)cn1 [Example 17]	2 (≈ 5.64 µM)	0.25 (≈ 0.704 µM)	–	MIC (M. avium LPR): 16 µg/mL (≈ 45.1 µM)
CCCCCCCOC(=O)c1cnc(Cl)cn1 [Example 18]	< 0.03	0.06 (≈ 0.234 µM)	8 (≈ 31.2 µM)	–
CCCCCCCCC(C)OC(=O)c1cnc(Cl)cn1 (centres unmarked) [Example 19]	0.13 (≈ 0.435 µM)	0.03 (≈ 0.1 µM)	32 (≈ 107 µM)	–
CCCCCCCCCOC(=O)c1cnc(Cl)cn1 [Example 20]	< 0.13	< 0.03	32 (≈ 112 µM)	–
CCCCCCC(C)(C)OC(=O)c1cnc(Cl)cn1 [Example 21]	1 (≈ 3.51 µM)	0.25 (≈ 0.878 µM)	64 (≈ 225 µM)	–
CCCCCCC(C)(C)OC(=O)c1cnc(Cl)cn1 [Example 22]	–	–	–	MIC (M. tuberculosis 102; M. tuberculosis 102, 7H10 broth, pH 5.8): 0.13 µg/mL (≈ 0.456 µM)

Molecule	MIC (M. kansasii SWK) [µg/mL]	MIC (M. tuberculosis 102; [6]) [µg/mL]	MIC (M. avium 101) [µg/mL]	other results
COC(=O)c1cnc(F)cn1 [Example 23]	8 (≈ 51.2 µM)	4 (≈ 25.6 µM)	64 (≈ 410 µM)	–
CCCCCC(C)OC(=O)c1cnc(Cl)cn1 (centres unmarked) [Example 24]	< 0.13	0.06 (≈ 0.234 µM)	32 (≈ 125 µM)	–
CCCCCCCCCCCOC(=O)c1cnc(Cl)cn1 [Example 25]	0.06 (≈ 0.192 µM)	0.25 (≈ 0.799 µM)	16 (≈ 51.1 µM)	–
CCCCCOC(=O)c1cnc(Cl)cn1 [Example 26]	0.03 (≈ 0.131 µM)	0.06 (≈ 0.262 µM)	32 (≈ 140 µM)	–
CCCCCCCCCCOC(=O)c1cnc(F)cn1 [Example 27]	1 (≈ 3.54 µM)	2 (≈ 7.08 µM)	32 (≈ 113 µM)	–
CCCCCCOC(=O)c1cnc(F)cn1 [Example 28]	8 (≈ 35.4 µM)	–	64 (≈ 283 µM)	–
CCCCCCC(C)OC(=O)c1cnc(F)cn1 (centres unmarked) [Example 29]	0.03 (≈ 0.118 µM)	2 (≈ 7.86 µM)	32 (≈ 126 µM)	–
O=C(OCc1ccccc1)c1cnc(Cl)cn1 [Example 30]	1 (≈ 4.02 µM)	1 (≈ 4.02 µM)	8 (≈ 32.2 µM)	–
CCCCOC(=O)c1cnc(Cl)cn1 [Example 31]	< 1	0.25 (≈ 1.16 µM)	64 (≈ 298 µM)	–
C=CC(C)OC(=O)c1cnc(Cl)cn1 (centres unmarked) [Example 32]	< 1	2 (≈ 9.41 µM)	64 (≈ 301 µM)	–
C=CCOC(=O)c1cnc(Cl)cn1 [Example 33]	< 1	1 (≈ 5.04 µM)	64 (≈ 322 µM)	–
CC(C)COC(=O)c1cnc(Cl)cn1 [Example 34]	< 1	2 (≈ 9.32 µM)	64 (≈ 298 µM)	–
CC(C)(C)OC(=O)c1cnc(Cl)cn1 [Example 35]	< 1	2 (≈ 9.32 µM)	128 (≈ 596 µM)	–
CCCCCCCCCC(C)OC(=O)c1cnc(Cl)cn1 (centres unmarked) [Example 36]	0.25 (≈ 0.799 µM)	0.25 (≈ 0.799 µM)	16 (≈ 51.1 µM)	–
CCCCCCCC(C)(CCCC)OC(=O)c1cnc(Cl)cn1 (centres unmarked) [Example 37]	16 (≈ 46.9 µM)	8 (≈ 23.5 µM)	> 64	–
CCCCCCCCC(C)(CCCC)OC(=O)c1cnc(Cl)cn1 (centres unmarked) [Example 38]	> 16	16 (≈ 45.1 µM)	> 64	–
COC(=O)c1cnc(I)cn1 [Example 39]	8 (≈ 30.3 µM)	16 (≈ 60.6 µM)	256 (≈ 970 µM)	–
CCCCCC(C)(CCCC)OC(=O)c1cnc(Cl)cn1 (centres unmarked) [Example 40]	16 (≈ 51.1 µM)	4 (≈ 12.8 µM)	> 256	–
O=C(OCC(F)(F)F)c1cnccn1 [Example 41]	100 (≈ 485 µM)	–	–	MIC (M. tuberculosis BUR): 25 µg/mL (≈ 121 µM)
C=CCOC(=O)c1cnccn1 [Example 42]	3 (≈ 18.3 µM)	–	–	MIC (M. tuberculosis BUR): 6.3 µg/mL (≈ 38.4 µM)
CCCOC(=O)c1cnccn1 [Example 43]	3 (≈ 18.1 µM)	–	–	MIC (M. tuberculosis BUR): 3 µg/mL (≈ 18.1 µM)
CCCCCC(C)(CCC)OC(=O)c1cnc(Cl)cn1 (centres unmarked) [Example 44]	4 (≈ 13.4 µM)	4 (≈ 13.4 µM)	> 256	–

Molecule	MIC (M. kansasii SWK) [µg/mL]	MIC (M. tuberculosis 102; [6]) [µg/mL]	MIC (M. avium 101) [µg/mL]	other results
CCCCCC(C)(CCCCC)OC(=O)c1cnc(Cl)cn1 [Example 45]	8 (≈ 24.5 µM)	8 (≈ 24.5 µM)	> 64	–
CCCCCCC(C)(CCCCC)OC(=O)c1cnc(Cl)cn1 (centres unmarked) [Example 46]	8 (≈ 23.5 µM)	2 (≈ 5.87 µM)	> 64	–
CCCCCCCC(C)(CCCCC)OC(=O)c1cnc(Cl)cn1 (centres unmarked) [Example 47]	–	2 (≈ 5.64 µM)	> 64	–
CCCCCCCCCC(C)(CCCCCCC)OC(=O)c1cnc(Cl)cn1 (centres unmarked) [Example 48]	–	0.5 (≈ 1.22 µM)	> 64	–
CC(C)COC(=O)c1cnccn1 [Example 49]	16 (≈ 88.8 µM)	2 (≈ 11.1 µM)	256 (≈ 1420 µM)	–
CCC(C)OC(=O)c1cnccn1 (centres unmarked) [Example 50]	16 (≈ 88.8 µM)	8 (≈ 44.4 µM)	256 (≈ 1420 µM)	–
Cc1cc(C(C)(C)C)c(OC(=O)c2cnccn2)c(C(C)(C)C)c1 [Example 51]	> 16	128 (≈ 392 µM)	> 256	–
O=C(OCc1ccccc1)c1cnccn1 [Example 52]	1 (≈ 4.67 µM)	1 (≈ 4.67 µM)	64 (≈ 299 µM)	–
C/C=C/COC(=O)c1cnccn1 [Example 54]	–	2 (≈ 11.2 µM)	–	–
Cc1cc(C)c(OC(=O)c2cnccn2)c(C)c1 [Example 55]	2 (≈ 8.25 µM)	1 (≈ 4.13 µM)	64 (≈ 264 µM)	–
CC1CCC(C(C)C)C(OC(=O)c2cnccn2)C1 (centres unmarked) [Example 56]	–	2 (≈ 7.62 µM)	–	–
O=C(OC(C(F)(F)F)C(F)(F)F)c1cnccn1 [Example 60]	–	–	–	MIC (M. tuberculosis BUR): 100 µg/mL (≈ 365 µM)
O=C(OCCCl)c1cnccn1 [Example 62]	25 (≈ 134 µM)	–	–	MIC (M. tuberculosis BUR): 6.3 µg/mL (≈ 33.8 µM)
O=C(Oc1ccc([N+](=O)[O-])cc1)c1cnccn1 [Example 63]	25 (≈ 102 µM)	–	–	MIC (M. tuberculosis BUR): 12.5 µg/mL (≈ 51 µM)
Cc1ccc(OC(=O)c2cnccn2)cc1 [Example 64]	100 (≈ 467 µM)	100 (≈ 467 µM)	–	–
CC(C)(C)c1ccc(OC(=O)c2cnccn2)cc1 [Example 65]	25 (≈ 97.5 µM)	25 (≈ 97.5 µM)	–	–
O=C(Oc1c(F)c(F)c(F)c(F)c1F)c1cnccn1 [Example 66]	25 (≈ 86.2 µM)	–	–	–
O=C(Oc1ccc(-c2ccccc2)cc1)c1cnccn1 [Example 67]	25 (≈ 90.5 µM)	–	–	–
CN(C)CCOC(=O)c1cnccn1 [N,N-dimethyl-2-aminoethyl pyrazinoate]	–	–	–	in vitro activity against M. tuberculosis H37RV [1]: active
NC(=O)c1cnccn1 [pyrazinamide]	–	–	–	hepatotoxicity [2]: hepatotoxicity; activity against M. bovis or other mycobacteria [3]: not active; activity against M. tuberculosis [4]: only active against Mycobacterium (M.) tuberculosis; activity against M. avium (M. avium): inactive
pyrazinoate ester of chloramphenicol	–	–	–	activity against bacteria including M. tuberculosis [5]: inactive

— patent US5643912A, “Pyrazinoic acid esters as anti-mycobacterium avium agents” (The Research Foundation of State University of NY, priority 1996, dated 1997)
